# Data taken from PMC4037345 (ChemMedChem, 2014).
# Key:
# SKOV3 = test: Resazurin-based viability assay, 48 hr treatment, SKOV3; format: cell-based, human; details: read-out: SKOV3 IC50
# [1] = cited from earlier work
# [2] = parent drugs; cited from earlier work
# OVCA429 = test: Resazurin-based viability assay, 48 hr treatment, OVCA429; format: cell-based, human; details: read-out: OVCA429 IC50
# Albumin = Albumin (Homo sapiens, UniProt P02768); details: parent drugs; cited from earlier work
# Albumin, sequence (P02768 25-609, species assumed): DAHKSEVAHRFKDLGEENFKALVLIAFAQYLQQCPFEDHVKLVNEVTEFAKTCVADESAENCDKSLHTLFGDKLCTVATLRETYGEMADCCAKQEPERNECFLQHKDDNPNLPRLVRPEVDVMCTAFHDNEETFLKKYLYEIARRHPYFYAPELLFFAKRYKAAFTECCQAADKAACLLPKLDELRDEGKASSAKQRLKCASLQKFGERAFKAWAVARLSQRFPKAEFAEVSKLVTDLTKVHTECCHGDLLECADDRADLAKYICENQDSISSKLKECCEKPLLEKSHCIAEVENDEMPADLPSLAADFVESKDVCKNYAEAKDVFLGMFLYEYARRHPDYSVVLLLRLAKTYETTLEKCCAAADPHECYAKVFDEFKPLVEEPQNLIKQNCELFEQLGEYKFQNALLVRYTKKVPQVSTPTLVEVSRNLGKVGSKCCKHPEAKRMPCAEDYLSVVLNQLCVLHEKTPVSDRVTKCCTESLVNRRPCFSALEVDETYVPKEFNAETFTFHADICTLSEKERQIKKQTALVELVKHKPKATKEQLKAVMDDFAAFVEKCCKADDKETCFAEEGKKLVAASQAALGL
Structure (SMILES),IC50 (SKOV3),t1/2 initial (initial plasma half-life) [1],logP [2],IC50 (OVCA429),% Albumin Binding (Albumin)
"N.N.O=C([O-])C1(C(=O)[O-])CCC1.[Pt+2] [Carboplatin, carboplatin]",100 ± 6 µM,5[32-33] min,-2.3[30],210 ± 6 µM,40[29] %
"N.N.[Cl][Pt][Cl] [Cisplatin, cisplatin]",3 ± 0.3 µM,,,15 ± 1 µM,
